Results taken from ChEMBL document CHEMBL4665641, “Lead optimization and efficacy evaluation of quinazoline-based BET family inhibitors for potential treatment of cancer and inflammatory diseases” (Bioorg Med Chem Lett, 2019).

Assays:
[1] = tested on: MV4-11; experiment: Cytotoxicity against human MV4-11 cells assessed as inhibition of cell viability; format: functional, cell-based
[2] = AUC(0 to infinity) in CD-1 mouse at 2 mg/kg, iv; format: ADME, organism-based; set-up: time infinity, route intravenous, dose 2 mg/kg; settings: in vivo; for AUC(0-inf): CD-1, mouse
[3] = Plasma clearance in CD-1 mouse at 2 mg/kg, iv; format: ADME, organism-based
[4] = Oral bioavailability in CD-1 mouse at 10 mg/kg; format: ADME, organism-based; settings: CD-1, mouse, in vivo
[5] = target: T1, Bromodomain-containing protein 4 (Homo sapiens, UniProt O60885); experiment: Competitive binding affinity to human partial length BRD4 (BD1,2) (N44 to E460 residues) expressed in bacterial expression system by BROMOscan assay
[6] = Half life in CD-1 mouse at 2 mg/kg, iv; format: ADME, organism-based; settings: in vivo
[7] = Half life in CD-1 mouse at 10 mg/kg, po; format: ADME, organism-based; settings: in vivo
[8] = Cmax in CD-1 mouse at 2 mg/kg, iv measured after 5 mins; format: ADME, organism-based; set-up: route intravenous, dose 2 mg/kg; settings: CD-1, mouse, in vivo, read-out: Cmax
[9] = Cmax in CD-1 mouse at 10 mg/kg, po; format: ADME, organism-based; set-up: route oral, dose 10 mg/kg; settings: CD-1, mouse, in vivo, read-out: Cmax
[10] = AUC(0 to infinity) in CD-1 mouse at 10 mg/kg, po; format: ADME, organism-based; set-up: route oral, time infinity, dose 10 mg/kg; settings: CD-1, mouse, in vivo
[11] = Volume of distribution at steady state in CD-1 mouse at 2 mg/kg, iv; format: ADME, organism-based; settings: in vivo, read-out: Vdss
[12] = tested on: Kasumi 1; experiment: Antitumor activity against human Kasumi-1 cells xenografted in CB17 SCID mouse assessed as tumor volume at 10 mg/kg, po QD for 29 days (reference value: 1734 +/- 220 mm3); format: functional; settings: time 29 day
[13] = tested on: Kasumi 1; experiment: Antitumor activity against human Kasumi-1 cells xenografted in CB17 SCID mouse assessed as tumor weight at 10 mg/kg, po QD for 29 days (reference value: 2.1+/- 0.3 g); format: functional; settings: time 29 day
[14] = tested on: Kasumi 1; experiment: Antitumor activity against human Kasumi-1 cells xenografted in CB17 SCID mouse assessed as inhibition of tumor growth at 10 mg/kg, po QD for 29 days; format: functional; settings: Kasumi 1, po, 696 h, time 29 day, read-out: TGI
[15] = target: T1, Bromodomain-containing protein 4; experiment: Inhibition of human full-length recombinant N-terminal His-tagged BRD4 (2 to 1362 residues) expressed in Sf9 cells using histone H4 peptide containing acetylated lysine residues as substrate preincubated with enzyme for 30 mins followed by incubation with substrate for 30 mins by Alphascreen assay […]
[16] = Stability in mouse liver microsomes assessed as half life; format: ADME, Microsome

Structure (SMILES)	IC50 [1] [nM]	clearance [3] [mL/min/kg]	bioavailability [4] [%]	Kd [5] [nM]	half-life [6] [h]	half-life [7] [h]	Cmax [8] [ng/mL]	Cmax [9] [ng/mL]	AUC(0-inf) [2] [ng·h/mL]	AUC(0-inf) [10] [ng·h/mL]	Vd [11] [L/kg]	IC50 [15] [nM]	other results
Cc1noc(C)c1-c1ccc2nc(N3CCN(CCN(C)C)CC3)nc(N3CCOC[C@@H]3c3ccccc3)c2c1	690	–	–	–	–	–	–	–	–	–	–	–	AUC ([2]; mouse): 585 ng·h/mL
Cc1cc(-c2ccc3nc(-c4cnn(CC(C)(C)O)c4)nc(N4CCOC[C@@H]4c4ccc(F)cc4)c3c2)cn(C)c1=O	–	4.5	123	20	2.6	4.2	2260	3180	7400	45700	1.08	6	Activity [12]: 977 mm3; Activity [13]: 1.24 g; inhibition in vivo at 10 mg/kg [14]: 41%
Cn1cc(-c2ccc3nc(-c4cnn(CC(C)(C)O)c4)nc(N4CCOC[C@@H]4c4ccc(F)cc4)c3c2)ccc1=O	870	–	–	160	–	–	–	–	–	–	–	–	–
Cc1noc(C)c1-c1ccc2nc(N3CCC4(CCC(=O)N4C)CC3)nc(N3CCOC[C@@H]3c3ccccc3)c2c1	1380	–	–	51	–	–	–	–	–	–	–	–	–
Cc1noc(C)c1-c1ccc2nc(-c3cnn(CC(C)(C)O)c3)nc(N3CCOC[C@@H]3C3CCCC3)c2c1	1540	–	–	155	–	–	–	–	–	–	–	–	t1/2 [16]: 2 min
CC(=O)N1CCN(c2nc(N3CCOC[C@@H]3c3ccccc3)c3cc(-c4c(C)noc4C)ccc3n2)CC1	1430	–	–	42	–	–	–	–	–	–	–	–	–
Cc1noc(C)c1-c1ccc2nc(-c3cnn(CC(C)(C)O)c3)nc(N3CCOC[C@@H]3c3cccs3)c2c1	1950	7.3	72	220	1.4	2.4	1580	2220	4940	17700	1.01	364	–
Cc1noc(C)c1-c1ccc2nc(-c3cnn(CC(C)(C)O)c3)nc(N3CCOC[C@@H]3c3ccc(Cl)cc3)c2c1	1600	5.9	44	305	2.4	2.8	1800	1120	5720	12600	1.58	155	–
Cc1noc(C)c1-c1ccc2nc(C(=O)NC3CCN(C)CC3)nc(N3CCOC[C@@H]3c3ccccc3)c2c1	1600	–	–	210	–	–	–	–	–	–	–	–	–
Cc1noc(C)c1-c1ccc2nc(-c3cnn(CC(=O)N(C)C)c3)nc(N3CCOC[C@@H]3c3ccccc3)c2c1	1800	–	–	110	–	–	–	–	–	–	–	–	–
CNC(=O)C1CCN(c2nc(N3CCOC[C@@H]3c3ccccc3)c3cc(-c4c(C)noc4C)ccc3n2)CC1	970	–	–	73	–	–	–	–	–	–	–	–	–
Cc1noc(C)c1-c1ccc2nc(-c3cnn(CC(N)=O)c3)nc(N3CCOC[C@@H]3c3ccccc3)c2c1	2020	–	–	120	–	–	–	–	–	–	–	–	–
Cc1noc(C)c1-c1ccc2nc(-c3cnn(C(C)(C)CO)c3)nc(N3CCOC[C@@H]3c3ccccc3)c2c1	1970	–	–	87	–	–	–	–	–	–	–	–	–
CC(=O)N1CCN(c2nc(-c3cnn(CC(C)(C)O)c3)nc3ccc(-c4c(C)noc4C)cc23)[C@@H](c2ccccc2)C1	850	7.3	95	81	1.5	1.7	2450	3450	4640	21900	0.72	140	–
Cn1cc(-c2ccc3nc(-c4cnn(CC(C)(C)O)c4)nc(N4CCOC[C@@H]4C4CC4)c3c2)ccc1=O	2350	–	–	2200	–	–	–	–	–	–	–	–	–
Cc1cc(-c2ccc3nc(-c4cnn(CC(C)(C)O)c4)nc(N4CCOC[C@@H]4c4ccccc4)c3c2)cn(C)c1=O	240	3.8	85	23	2.1	2.7	2450	2870	9330	39800	0.89	11	Activity [12]: 588 mm3; Activity [13]: 0.73 g; inhibition in vivo at 10 mg/kg [14]: 65.1%
